US20230099293A1, “OGA INHIBITOR COMPOUNDS” (priority 2019, published 2023)

How the values were obtained:
[1] = target: T1, recombinant human Meningioma Expressed Antigen 5 (MGEA5), also referred to as O-GlcNAcase (OGA) (Homo sapiens, UniProt O60502); experiment: OGA biochemical assay (inhibition of FM-GlcNAc hydrolysis, fluorescence); conditions: for IC50: Enzymatic hOGA; for Emax: read-out: Enzymatic Emax (%)
T1 construct: Full length OGA enzyme was purchased at OriGene (cat #TP322411); purchased OriGene TP322411
T1 sequence (O60502 1-916): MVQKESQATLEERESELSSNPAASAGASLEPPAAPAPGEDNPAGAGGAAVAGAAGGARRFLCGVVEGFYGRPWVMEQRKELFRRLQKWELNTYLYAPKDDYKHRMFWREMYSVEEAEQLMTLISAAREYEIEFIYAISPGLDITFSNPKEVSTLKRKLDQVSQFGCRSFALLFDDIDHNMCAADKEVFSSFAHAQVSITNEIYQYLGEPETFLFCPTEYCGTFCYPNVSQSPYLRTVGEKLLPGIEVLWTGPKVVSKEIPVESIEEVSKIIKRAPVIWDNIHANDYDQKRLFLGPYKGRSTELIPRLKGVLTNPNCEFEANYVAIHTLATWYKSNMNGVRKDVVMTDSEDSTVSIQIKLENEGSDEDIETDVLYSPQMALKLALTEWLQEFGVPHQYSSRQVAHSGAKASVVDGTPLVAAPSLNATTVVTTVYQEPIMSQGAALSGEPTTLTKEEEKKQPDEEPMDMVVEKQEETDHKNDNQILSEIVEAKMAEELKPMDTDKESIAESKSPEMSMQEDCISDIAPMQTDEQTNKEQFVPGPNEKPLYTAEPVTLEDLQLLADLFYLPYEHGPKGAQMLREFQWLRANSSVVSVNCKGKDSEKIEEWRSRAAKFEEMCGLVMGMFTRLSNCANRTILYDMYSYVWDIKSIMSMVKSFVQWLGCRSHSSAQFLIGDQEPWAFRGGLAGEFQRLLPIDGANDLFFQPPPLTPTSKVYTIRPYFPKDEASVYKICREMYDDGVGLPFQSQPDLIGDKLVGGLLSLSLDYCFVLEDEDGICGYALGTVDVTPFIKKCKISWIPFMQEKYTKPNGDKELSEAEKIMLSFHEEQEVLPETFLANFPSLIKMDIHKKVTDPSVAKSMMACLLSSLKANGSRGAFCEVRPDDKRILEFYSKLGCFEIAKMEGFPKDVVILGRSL
Method: The hydrolysis FM-GlcNAc (Marker Gene technologies, cat #M1485) results in the formation of β-D-N-glucosamineacetate and fluorescein. The fluorescence of the latter can be measured at excitation wavelength 485 nm and emission wavelength 538 nm. An increase in enzyme activity results in an increase in fluorescence signal. Full length OGA enzyme was purchased at OriGene (cat #TP322411). The enzyme was stored in 25 mM Tris.HCl, pH 7.3, 100 mM glycine, 10% glycerol at −20° C. […] The assay was performed in 200 mM Citrate/phosphate buffer supplemented with 0.005% Tween-20. 35.6 g Na2HIPO42H2O (Sigma, #C0759) were dissolved in 1 L water to obtain a 200 mM solution. […] The buffer to stop the reaction consists of a 500 mM Carbonate buffer, pH 11.0. […] OGA was used at a 2 nM concentration and FM-GlcNAc at a 100 uM final concentration. Dilutions were prepared in assay buffer.
Plates were pre-incubated for 60 min at room temperature and then 2 μl FM-GlcNAc substrate mix added. […] Plates were briefly centrifuged for 1 min at 1000 rpm and incubate at room temperature for 6 h. To stop the reaction 5 μl STOP buffer were added and plates centrifuge again 1 min at 1000 rpm. Fluorescence was quantified in the Thermo Scientific Fluoroskan Ascent or the PerkinElmer EnVision with excitation wavelength 485 nm and emission wavelength 538 nm.
For analysis a best-fit curve is fitted by a minimum sum of squares method. From this an IC50 value and Hill coefficient was obtained. High control (no inhibitor) and low control (saturating concentrations of standard inhibitor) were used to define the minimum and maximum values.

[2] = target: T2, hOGA (Homo sapiens, UniProt O60502); experiment: OGA cellular assay (ICC detection of O-GlcNAcylated proteins in HEK293 cells inducible for P301L mutant human Tau); format: cell-based; design: Emax: dose or concentration left out as unconfirmed; conditions: for EC50: Cellular hOGA; for Emax: HEK293, read-out: Cellular Emax (%)
T2 construct: endogenous in cells; host or cells: HEK293 cells inducible for P301L mutant human Tau (isoform 2N4R)
T2 sequence (O60502 1-916): T1 sequence (O60502 1-916)
Method: HEK293 cells inducible for P301L mutant human Tau (isoform 2N4R) were established at Janssen. Thiamet-G was used for both plate validation (high control) and as reference compound (reference EC50 assay validation). OGA inhibition is evaluated through the immunocytochemical (ICC) detection of O-GlcNAcylated proteins by the use of a monoclonal antibody (CTD110.6; Cell Signaling, #9875) detecting O-GlcNAcylated residues as previously described (Dorfmueller et al. 2010 Chemistry & biology, 17:1250). Inhibition of OGA will result in an increase of O-GlcNAcylated protein levels resulting in an increased signal in the experiment. Cell nuclei are stained with Hoechst to give a cell culture quality control and a rough estimate of immediate compounds toxicity, if any. ICC pictures are imaged with a Perkin Elmer Opera Phenix plate microscope and quantified with the provided software Perkin Elmer Harmony 4.1.
Cells were propagated in DMEM high Glucose (Sigma, #D5796) following standard procedures. 2 days before the cell assay cells are split, counted and seeded in Poly-D-Lysine (PDL) coated 96-wells (Greiner, #655946) plate at a cell density of 12,000 cells per cm^2 (4,000 cells per well) in 100 μl of Assay Medium (Low Glucose medium is used to reduce basal levels of GlcNAcylation) (Park et al. 2014 The Journal of biological chemistry 289:13519). At the day of compound test medium from assay plates was removed and replenished with 90 μl of fresh Assay Medium. 10 μl of compounds at a 10 fold final concentration were added to the wells. Plates were centrifuged shortly before incubation in the cell incubator for 6 hours. DMSO concentration was set to 0.2%. Medium is discarded by applying vacuum. For staining of cells medium was removed and cells washed once with 100 μl D-PBS (Sigma, #D8537). From next step onwards unless other stated assay volume was always 50 μl and incubation was performed without agitation and at room temperature. Cells were fixed in 50 μl of a 4% paraformaldehyde (PFA, Alpha aesar, #043368) PBS solution for 15 minutes at room temperature. […] Before analysis samples were washed 2 times manually for 5 minutes in ICC base buffer.
Imaging is performed using Perkin Elmer Phenix Opera using a water 20× objective and recording 9 fields per well. Intensity readout at 488 nm is used as a measure of O-GlcNAcylation level of total proteins in wells. To assess potential toxicity of compounds nuclei were counted using the Hoechst staining. IC50-values are calculated using parametric non-linear regression model fitting. As a maximum inhibition Thiamet Gat a 200 uM concentration is present on each plate. In addition, a concentration response of Thiamet G is calculated on each plate.

[3] = pIC50, Table 5, full length OGA 2 nM, FM-GlcNAc 100 uM, 6 h at room temperature
[4] = pEC50, Table 5, HEK293 P301L Tau cells, 6 hours incubation, O-GlcNAcylation readout
[5] = second table, averaged values over several runs, obtained after recalibration of the equipment
[6] = pIC50, second table, averaged values over several runs, obtained after recalibration of the equipment
[7] = pEC50, second table, averaged values over several runs, obtained after recalibration of the equipment

Cc1cc2c(cnn2C)c(C)c1Nc1nccc2c1ncn2CC(=O)N(C)C [Compound 13]
IC50 [1, 3]: 13.8 nM | Emax [1]: 98% | EC50 [2, 4]: 69.2 nM | Emax [2]: 113% | melting point: 265.1 °C

Cc1cc(C(F)(F)F)cc(C)c1Nc1nccc2c1ncn2C1CCCCO1 (centres unmarked) [Compound 73]
Enzymatic hOGA; pIC50 ([1]; Table 5, full length OGA 2 nM, FM-GlcNAc 100 uM, 6 h at room temperature): 6.77 | Emax [1]: 100% | Enzymatic hOGA; pIC50 [1, 5]: 6.91 | Emax [2]: 42% | Cellular hOGA; pEC50 ([2]; Table 5, HEK293 P301L Tau cells, 6 hours incubation, O-GlcNAcylation readout): <6 | Cellular hOGA; pEC50 [2, 5]: 6.42 | melting point: 169.8 °C

COc1ccc(-n2nc(C)c(Nc3nccc4c3ncn4CC(=O)N(C)C)c2C)cc1 [Compound 44]
IC50 [1, 3]: 27.5 nM | Emax [1]: 99% | EC50 [2, 4]: 457 nM | Emax [2]: 64% | melting point: 199.9 °C

Cc1cc(C(F)(F)F)cc(F)c1Nc1nccc2c1ncn2CC(=O)N(C)C [Compound 25]
IC50 [1, 3]: 135 nM | Emax [1]: 96% | EC50 [2, 4]: > 1000 nM | Emax [2]: 29% | melting point: 226.6 °C

Cc1nn(-c2ccccc2)c(C)c1Nc1nccc2c1ncn2CC(=O)N(C)C [Compound 41]
IC50 [1, 3]: 28.2 nM | Emax [1]: 95% | EC50 [2, 4]: > 1000 nM | Emax [2]: 44% | melting point: 126.3 °C

Cc1cc(F)c(F)c(C)c1Nc1nccc2c1ncn2CC(=O)N(C)C [Compound 78]
IC50 [1, 6]: 21.4 nM | EC50 [2, 7]: 427 nM | melting point: 198.1 °C

CC(C)c1cc(F)cc(Cl)c1Nc1nccc2c1ncn2CC(=O)N(C)C [Compound 47]
IC50 [1, 3]: 13.5 nM | Emax [1]: 97% | EC50 [2, 4]: 67.6 nM | Emax [2]: 110% | melting point: 251.8 °C

CN(C)C(=O)Cn1cnc2c(Nc3ccc(F)cc3C(F)(F)F)nccc21 [Compound 29]
IC50 [1, 3]: 1000 nM | Emax [1]: 100% | EC50 [2, 4]: > 200 nM | Emax [2]: 2% | melting point: 246.7 °C

Cc1cc(F)c(F)c(C)c1Nc1nccc2c1ncn2CC(=O)N1CCC1 [Compound 79]
IC50 [1, 6]: 251 nM | EC50 [2, 7]: > 1000 nM | melting point: 214.8 °C

Cc1nn(-c2cccc(F)c2)c(C)c1Nc1nccc2c1ncn2CC(=O)N(C)C [Compound 34]
IC50 [1, 3]: 36.3 nM | Emax [1]: 99% | EC50 [2, 4]: 562 nM | Emax [2]: 54% | melting point: 181.5 °C

Cc1n[nH]c(C)c1Nc1nccc2c1ncn2CC(=O)N(C)C [Compound 38]
IC50 [1, 3]: 912 nM | Emax [1]: 90% | EC50 [2, 4]: > 1000 nM | Emax [2]: 6% | melting point: 283.5 °C

Cc1cc(C(F)(F)F)cc(C)c1Nc1nccc2c1ncn2CC(=O)N1CCC1 [Compound 50]
IC50 [1, 3]: 126 nM | Emax [1]: 94% | EC50 [2, 4]: 933 nM | Emax [2]: 48% | melting point: 176.4 °C

Cc1cc(C(F)(F)F)cc(C)c1Nc1ncc(Cl)c2c1ncn2CC(=O)N(C)C [Compound 62, 2-[7-Chloro-4-[2,6-dimethyl-4-(trifluoromethyl)anilino]imidazo[4,5-c]pyridin-1-yl]-N,N-dimethyl-acetamide]
IC50 [1, 3]: 692 nM | Emax [1]: 91% | EC50 [2, 4]: > 1000 nM | Emax [2]: 13% | melting point: 239.9 °C

Cc1cc(-c2cnn(C)c2)cc(C(C)C)c1Nc1nccc2c1ncn2CC(=O)N(C)C [Compound 22]
IC50 [1, 3]: 41.7 nM | Emax [1]: 98% | EC50 [2, 4]: > 1000 nM | Emax [2]: 31% | melting point: 234.4 °C

Cc1cc(C(F)(F)F)cc(C)c1Nc1nccc2c1ncn2-c1cn(C)cn1 [Compound 82, N-(2,6-dimethyl-4-(trifluoromethyl)phenyl)-1-(1-methyl-1H-imidazol-4-yl)-1H-imidazo[4,5-c]pyridin-4-amine]
IC50 [1, 3]: 174 nM | IC50 [1, 6]: 170 nM | Emax [1]: 97% | EC50 [2, 7]: > 1000 nM | melting point: 184.8 °C

Cc1cc(C(F)(F)F)cc(C)c1Nc1ncc(C)c2c1cnn2CC(=O)N(C)C [Compound 81, 2-(4-((2,6-Dimethyl-4-(trifluoromethyl)phenyl)amino)-7-methyl-1H-pyrazolo[4,3-c]pyridin-1-yl)-N,N-dimethylacetamide]
IC50 [1, 3]: 69.2 nM | Emax [1]: 100% | EC50 [2, 4]: 537 nM | EC50 [2, 7]: 151 nM | Emax [2]: 66% | melting point: 211.6 °C

Cc1cc(C(F)(F)F)cc(C)c1Nc1ncc(C)c2c1ncn2CC(=O)N(C)C [Compound 6, 2-(4-((2,6-Dimethyl-4-(trifluoromethyl)phenyl)amino)-7-methyl-1H-imidazo[4,5-c]pyridin-1-yl)-N,N-dimethylacetamide]
IC50 [1, 3]: 19.1 nM | Emax [1]: 99% | EC50 [2, 4]: 288 nM | Emax [2]: 60% | melting point: 238.3 °C

Cc1ccnc(C(C)C)c1Nc1nccc2c1cnn2CC(=O)N(C)C [Compound 65, 2-[4-[(2-Isopropyl-4-methyl-3-pyridyl)amino]pyrazolo[4,3-c]pyridin-1-yl]-N,N-dimethyl-acetamide]
IC50 [1, 3]: 174 nM | Emax [1]: 97% | EC50 [2, 4]: > 1000 nM | Emax [2]: 24% | melting point: 211.5 °C
